From patent US8829016B2, “Triazole compounds as potential anti-inflammatory agents” (King Saud University, priority 2011, dated 2014)

How the values were obtained:
ovine COX-1 = target: T1, ovine COX-1 (Ovis aries, UniProt P05979); test: In vitro COX inhibition assay, colorimetric COX (ovine) inhibitor screening kit, COX-1; format: biochemical; details: ovine COX-1, colorimetric kit
T1 construct: purchased Cayman Chemicals, USA
T1 sequence (P05979 25-600): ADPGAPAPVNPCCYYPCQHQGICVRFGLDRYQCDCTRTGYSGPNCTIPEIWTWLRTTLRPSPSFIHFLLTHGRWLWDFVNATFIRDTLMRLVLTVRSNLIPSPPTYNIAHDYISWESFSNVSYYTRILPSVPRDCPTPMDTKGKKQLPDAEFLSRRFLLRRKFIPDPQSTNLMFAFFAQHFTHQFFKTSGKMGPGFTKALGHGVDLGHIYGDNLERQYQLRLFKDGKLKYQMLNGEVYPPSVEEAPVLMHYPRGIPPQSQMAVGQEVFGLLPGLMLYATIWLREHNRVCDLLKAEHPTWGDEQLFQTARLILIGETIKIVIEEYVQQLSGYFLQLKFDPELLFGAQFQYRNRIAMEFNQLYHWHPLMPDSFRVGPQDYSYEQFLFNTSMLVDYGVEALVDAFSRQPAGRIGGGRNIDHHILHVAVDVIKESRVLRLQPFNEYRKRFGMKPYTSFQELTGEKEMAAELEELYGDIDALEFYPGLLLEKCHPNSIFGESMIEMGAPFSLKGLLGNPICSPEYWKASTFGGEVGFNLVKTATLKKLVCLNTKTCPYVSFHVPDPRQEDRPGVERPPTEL
Protocol: (§1) Inhibition of the enzymes was determined with the colorimetric COX (ovine) inhibitor screening assay.
(§2) In Vitro COX Inhibition Assay
(§3) The final compounds were evaluated for their ability to inhibit ovine COX-1 and COX-2 enzymes [50% percent inhibition is expressed in molar concentration […]] […] Inhibition of the enzymes was determined with the colorimetric COX (ovine) inhibitor screening assay kit (Cayman Chemicals, USA) using ELISA reader.

ovine COX-2 = target: T2, ovine COX-2 (Ovis aries, UniProt P79208); test: In vitro COX inhibition assay, colorimetric COX (ovine) inhibitor screening kit, COX-2; format: biochemical; details: for IC50: ovine COX-2, colorimetric kit; for Selectivity index (COX-1/COX-2): ratio of IC50 COX-1 / IC50 COX-2
T2 construct: purchased Cayman Chemicals, USA
T2 sequence (P79208 17-603): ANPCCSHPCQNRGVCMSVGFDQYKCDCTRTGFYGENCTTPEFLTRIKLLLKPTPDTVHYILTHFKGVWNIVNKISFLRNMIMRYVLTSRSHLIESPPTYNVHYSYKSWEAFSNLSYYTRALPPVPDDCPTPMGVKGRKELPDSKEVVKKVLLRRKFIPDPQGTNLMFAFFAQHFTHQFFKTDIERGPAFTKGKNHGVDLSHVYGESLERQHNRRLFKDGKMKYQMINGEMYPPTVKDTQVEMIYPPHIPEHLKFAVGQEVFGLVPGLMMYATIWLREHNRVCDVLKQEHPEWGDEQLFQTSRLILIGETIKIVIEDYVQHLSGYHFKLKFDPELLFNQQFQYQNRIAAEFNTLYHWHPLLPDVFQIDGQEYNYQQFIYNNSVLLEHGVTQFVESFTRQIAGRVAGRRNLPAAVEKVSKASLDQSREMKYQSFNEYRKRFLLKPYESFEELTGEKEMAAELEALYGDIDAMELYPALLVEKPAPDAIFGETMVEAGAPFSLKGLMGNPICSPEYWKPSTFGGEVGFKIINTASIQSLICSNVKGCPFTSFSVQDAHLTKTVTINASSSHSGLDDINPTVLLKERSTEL
Protocol: as §1, §2, §3

[1] = test system: carrageenan-induced rat paw edema; test: In vivo carrageenan induced rat paw edema assay; set-up: species or system rat (male Sprague-Dawley); details: compound intravenously in DMSO one hour before carrageenan, vs vehicle control = 0%
Protocol: (§4) Anti-inflammatory activity was determined by the carrageenan-induced rat paw edema method described by Winter et al., Proc. Soc. Exp. Biol. Med. 1962, 111, 544, using male Sprague-Dawley rats weighing 150 to 200 g (6-8 weeks old). The protocol for the animal experiments performed was approved by the Research Ethics Committee and Animal Care and Use Committee, Govt. of Saudi Arabia. Compounds were administered intravenously in dimethyl sulfoxide solution. Paw edema was induced by intradermal injection of 50 μ. of 1% λ-carrageenan (Sigma, USA) into the subplantar region of the right hind paw, after one hour of compound administration. […] The control group received only the vehicle. Increase in paw volume was compared with that in the control group and percent inhibition was calculated taking the values in the control group as 0% inhibition.
In Vivo Carrageenan Induced Rat Paw Edema Assay
as §4, with “(Winter” for “Winter”, “al.” for “al.,”, “544). Male” for “544, using male”, “old) were used in groups of six animals per group for the experiments. The animals were housed in a room with temperature of 22±2° C. under a 12 h light/dark cycle. They were allowed free access to food and water ad libitum.” for “old).”, “μl” for “μ.”, “X-carrageenan” for “λ-carrageenan”

Row | SMILES | IC50 (ovine COX-1) [nM] | IC50 (ovine COX-2) [nM] | Selectivity index (COX-1/COX-2) (ovine COX-2) | melting point [°C] | AI activity % inhibition at 1 hr (carrageenan paw edema) [1] | AI activity % inhibition at 2 hr (carrageenan paw edema) [1] [%]
1 | CCCC(C)SC1NN=C(c2ccncc2)N1c1ccccc1 (stereo not drawn) [Compound 4, 3-[(Pent-2-yl)thio]-4-phenyl-5-pyridine-4-yl-2,4-dihydro-3H-1,2,4-triazole] | – | – | – | 96 to 97 | – | –
2 | C#CCSc1nnc(-c2ccncc2)n1-c1ccccc1 [Compound 3, 4-Phenyl-3-(prop-2-ynylthio)-5-pyridine-4-yl-2,4-dihydro-3H-1,2,4-triazole] | 7.5 | 5.3 | 1.42 | – | 10 ± 5.4% | 12 ± 4.9
3 | C=CCCCSC1NN=C(c2ccncc2)N1c1ccccc1 (stereo not drawn) [Compound 5] | – | – | – | 132 to 133 | – | –
4 | C=CCCCSc1nnc(-c2ccncc2)n1-c1ccccc1 [Compound 5] | 4.4 | 2.6 | 1.69 | – | 9 ± 1.3% | 38 ± 1.8
5 | Cc1ccc(-c2cc(C(F)(F)F)nn2-c2ccc(S(N)(=O)=O)cc2)cc1 [Celecoxib, reference compound] | – | – | – | – | 50 ± 2.1% | 71.5 ± 3.7
6 | C#CCSC1NN=C(c2ccncc2)N1c1ccccc1 (stereo not drawn) [Compound 3, 4-Phenyl-3-(prop-2-ynylthio)-5-pyridine-4-yl-2,4-dihydro-3H-1,2,4-triazole] | – | – | – | 151 to 152 | – | –
7 | S=c1n(CNc2ccc(Br)cc2)nc(-c2ccncc2)n1-c1ccccc1 [Compound 12, 2-[(4-Bromophenylamino)methyl]-4-phenyl-5-pyridine-4-yl-2,4-dihydro-3H-1,2,4-triazole-3-thione] | 6.4 | 3.9 | 1.64 | 208 to 209 | 12.5 ± 1.6% | 29 ± 3.8
8 | CCCC(C)Sc1nnc(-c2ccncc2)n1-c1ccccc1 (stereo not drawn) [Compound 4, 3-[(Pent-2-yl)thio]-4-phenyl-5-pyridine-4-yl-2,4-dihydro-3H-1,2,4-triazole] | 3.7 | 1.4 | 2.64 | – | 36 ± 2.1% | 50 ± 2.5
9 | S=c1n(CNCc2ccc(Cl)cc2)nc(-c2ccncc2)n1-c1ccccc1 [Compound 13, 2-[(4-Chlorobenzylamino)methyl]-4-phenyl-5-pyridine-4-yl-2,4-dihydro-3H-1,2,4-triazole-3-thione] | 8.7 | 6.8 | 1.38 | – | 16 ± 5.7% | 19 ± 6.3

Further lines, with some results ahead:

Row | IC50 (ovine COX-1) [nM] | IC50 (ovine COX-2) [nM] | Selectivity index (COX-1/COX-2) (ovine COX-2) | melting point [°C] | SMILES | AI activity % inhibition at 1 hr (carrageenan paw edema) [1] | AI activity % inhibition at 2 hr (carrageenan paw edema) [1] [%]
10 | 3.7 | 0.9 | 4.11 | – | S=c1n(CN2CCCC2)nc(-c2ccncc2)n1-c1ccccc1 [Compound 10, 4-Phenyl-5-pyridine-4-yl-2-pyrrolidinylmethyl-2,4-dihydro-3H-1,2,4-triazole-3-thione] | 62 ± 3.4% | 66 ± 1.5
11 | 9.2 | 7.8 | 1.18 | 231 to 232 | CCOC(=O)n1nc(-c2ccncc2)n(-c2ccccc2)c1=S [Compound 6, Ethyl[4-phenyl-5-pyridine-4-yl-3-thioxo-2,4-dihydro-3H-1,2,4-triazole-2-yl]carboxylate] | 0.0% | 5 ± 1.8
12 | 4.5 | 2.1 | 2.14 | 173 to 174 | CN(CCO)Cn1nc(-c2ccncc2)n(-c2ccccc2)c1=S [Compound 11, N-Methyl-N-[(4-phenyl-5-pyridine-4-yl-3-thioxo-2,4-dihydro-3H-1,2,4-triazol-2-y)methyl]-2-aminoethanol] | Zero | 16 ± 5.9
13 | 3.5 | 0.8 | 4.38 | 277 to 278 | OCn1nc(-c2ccncc2)n(-c2ccccc2)c1=S [Compound 7, 2-Hydroxymethyl-4-phenyl-5-pyridine-4-yl-2,4-dihydro-3H-1,2,4-triazole-3-thione] | 25 ± 1.8% | 66 ± 2.6
14 | 3.1 | 0.9 | 3.44 | 173 to 174 | CN(C)Cn1nc(-c2ccncc2)n(-c2ccccc2)c1=S [Compound 8, 2-Dimethylaminomethyl-4-phenyl-5-pyridine-4-yl-2,4-dihydro-3H-1,2,4-triazole-3-thione] | 51 ± 1.5% | 76 ± 2.8
15 | 3.8 | 1.1 | 3.46 | 216 to 217 | CCN(CC)Cn1nc(-c2ccncc2)n(-c2ccccc2)c1=S [Compound 9, 2-Diethylaminomethyl-4-phenyl-5-pyridine-4-yl-2,4-dihydro-3H-1,2,4-triazole-3-thione] | 45 ± 1.1% | 66 ± 1.2
